The values that follow come from patent publication US12479847B2 (DANA-FARBER CANCER INSTITUTE, INC., priority 2019, dated 2025).

Where two headings read alike, the source gives them in different places.

Test in all cases: KINOMEscan (ScanMAX) kinase profiling
What all share (format): binding

Assay [1] deals with T1, panel of 468 kinases (Homo sapiens, UniProt O75676).
T1 construct: purchased KINOMEscan (ScanMAX) service
The note with it: 1 μM, read-out: % control.

For assay [2], the target named is T2, panel of 468 kinases (Homo sapiens, UniProt O94806).
T2 construct: purchased KINOMEscan (ScanMAX) service
T2 sequence (O94806 1-890): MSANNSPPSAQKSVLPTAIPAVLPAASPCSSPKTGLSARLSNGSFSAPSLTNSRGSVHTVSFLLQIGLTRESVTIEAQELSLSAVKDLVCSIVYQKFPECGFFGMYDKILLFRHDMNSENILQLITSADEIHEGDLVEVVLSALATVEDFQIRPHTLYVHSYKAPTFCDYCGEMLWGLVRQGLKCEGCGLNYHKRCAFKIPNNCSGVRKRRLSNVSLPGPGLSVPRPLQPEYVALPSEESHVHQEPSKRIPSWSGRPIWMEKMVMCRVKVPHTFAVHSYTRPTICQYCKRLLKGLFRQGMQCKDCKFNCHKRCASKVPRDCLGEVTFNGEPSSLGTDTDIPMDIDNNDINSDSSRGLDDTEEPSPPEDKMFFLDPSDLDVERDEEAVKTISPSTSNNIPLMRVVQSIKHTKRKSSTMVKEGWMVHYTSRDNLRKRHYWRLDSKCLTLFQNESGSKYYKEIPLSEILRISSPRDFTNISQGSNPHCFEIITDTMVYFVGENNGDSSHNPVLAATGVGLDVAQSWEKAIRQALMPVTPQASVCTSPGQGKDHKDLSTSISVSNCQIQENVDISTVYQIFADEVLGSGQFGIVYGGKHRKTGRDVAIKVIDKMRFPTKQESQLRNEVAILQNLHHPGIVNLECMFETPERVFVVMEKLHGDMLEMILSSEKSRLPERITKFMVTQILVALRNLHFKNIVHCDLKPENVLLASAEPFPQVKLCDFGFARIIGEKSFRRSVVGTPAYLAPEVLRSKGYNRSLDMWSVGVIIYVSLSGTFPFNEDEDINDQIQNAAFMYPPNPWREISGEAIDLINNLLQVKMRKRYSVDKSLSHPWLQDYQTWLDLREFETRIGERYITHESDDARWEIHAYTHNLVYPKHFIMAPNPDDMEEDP
Particulars: PRKD3; 1 μM; read-out: % control.

Assay [3] addresses T3, panel of 468 kinases (Homo sapiens, UniProt O95747).
T3 construct: purchased KINOMEscan (ScanMAX) service
Particulars: OSR1; 1 μM; read-out: % control.

In assay [4] the target is T4, panel of 468 kinases (Homo sapiens, UniProt P00533, G719C).
T4 construct: purchased KINOMEscan (ScanMAX) service
T4 sequence (P00533 25-1210 G719C): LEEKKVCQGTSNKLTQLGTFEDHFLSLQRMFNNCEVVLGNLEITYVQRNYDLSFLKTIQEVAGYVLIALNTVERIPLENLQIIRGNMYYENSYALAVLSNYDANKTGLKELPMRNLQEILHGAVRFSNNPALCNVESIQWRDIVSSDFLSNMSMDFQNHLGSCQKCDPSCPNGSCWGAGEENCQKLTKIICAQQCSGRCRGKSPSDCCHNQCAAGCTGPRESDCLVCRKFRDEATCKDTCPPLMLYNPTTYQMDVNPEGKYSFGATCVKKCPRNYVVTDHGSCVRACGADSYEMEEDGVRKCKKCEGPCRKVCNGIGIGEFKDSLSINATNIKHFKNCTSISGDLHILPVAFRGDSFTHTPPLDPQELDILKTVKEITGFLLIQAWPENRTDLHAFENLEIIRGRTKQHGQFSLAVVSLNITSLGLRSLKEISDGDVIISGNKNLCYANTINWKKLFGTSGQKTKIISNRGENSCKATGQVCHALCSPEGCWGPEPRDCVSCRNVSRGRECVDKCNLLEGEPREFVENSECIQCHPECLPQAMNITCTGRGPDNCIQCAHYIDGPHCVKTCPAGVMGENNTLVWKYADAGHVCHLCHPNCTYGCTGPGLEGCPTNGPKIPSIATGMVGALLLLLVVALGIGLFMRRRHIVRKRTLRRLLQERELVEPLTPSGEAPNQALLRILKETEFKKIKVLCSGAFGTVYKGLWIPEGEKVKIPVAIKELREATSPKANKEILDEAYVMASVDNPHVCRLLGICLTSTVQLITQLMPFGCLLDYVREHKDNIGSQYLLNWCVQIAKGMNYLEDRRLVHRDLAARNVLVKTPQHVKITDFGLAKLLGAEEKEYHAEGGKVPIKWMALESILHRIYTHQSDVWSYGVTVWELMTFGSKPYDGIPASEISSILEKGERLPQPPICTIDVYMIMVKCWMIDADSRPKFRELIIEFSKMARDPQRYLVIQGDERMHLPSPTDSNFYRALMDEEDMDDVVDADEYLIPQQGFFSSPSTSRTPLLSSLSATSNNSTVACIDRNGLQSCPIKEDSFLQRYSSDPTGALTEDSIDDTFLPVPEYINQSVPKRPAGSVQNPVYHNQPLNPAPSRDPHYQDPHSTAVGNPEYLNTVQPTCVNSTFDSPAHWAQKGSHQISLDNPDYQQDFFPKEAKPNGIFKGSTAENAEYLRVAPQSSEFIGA
The note with it: EGFR(G719C); 1 μM; read-out: % control.

The target in assay [5] is T5, panel of 468 kinases (Homo sapiens, UniProt P08581, M1250T).
T5 construct: purchased KINOMEscan (ScanMAX) service
T5 sequence (P08581 25-1390 M1250T): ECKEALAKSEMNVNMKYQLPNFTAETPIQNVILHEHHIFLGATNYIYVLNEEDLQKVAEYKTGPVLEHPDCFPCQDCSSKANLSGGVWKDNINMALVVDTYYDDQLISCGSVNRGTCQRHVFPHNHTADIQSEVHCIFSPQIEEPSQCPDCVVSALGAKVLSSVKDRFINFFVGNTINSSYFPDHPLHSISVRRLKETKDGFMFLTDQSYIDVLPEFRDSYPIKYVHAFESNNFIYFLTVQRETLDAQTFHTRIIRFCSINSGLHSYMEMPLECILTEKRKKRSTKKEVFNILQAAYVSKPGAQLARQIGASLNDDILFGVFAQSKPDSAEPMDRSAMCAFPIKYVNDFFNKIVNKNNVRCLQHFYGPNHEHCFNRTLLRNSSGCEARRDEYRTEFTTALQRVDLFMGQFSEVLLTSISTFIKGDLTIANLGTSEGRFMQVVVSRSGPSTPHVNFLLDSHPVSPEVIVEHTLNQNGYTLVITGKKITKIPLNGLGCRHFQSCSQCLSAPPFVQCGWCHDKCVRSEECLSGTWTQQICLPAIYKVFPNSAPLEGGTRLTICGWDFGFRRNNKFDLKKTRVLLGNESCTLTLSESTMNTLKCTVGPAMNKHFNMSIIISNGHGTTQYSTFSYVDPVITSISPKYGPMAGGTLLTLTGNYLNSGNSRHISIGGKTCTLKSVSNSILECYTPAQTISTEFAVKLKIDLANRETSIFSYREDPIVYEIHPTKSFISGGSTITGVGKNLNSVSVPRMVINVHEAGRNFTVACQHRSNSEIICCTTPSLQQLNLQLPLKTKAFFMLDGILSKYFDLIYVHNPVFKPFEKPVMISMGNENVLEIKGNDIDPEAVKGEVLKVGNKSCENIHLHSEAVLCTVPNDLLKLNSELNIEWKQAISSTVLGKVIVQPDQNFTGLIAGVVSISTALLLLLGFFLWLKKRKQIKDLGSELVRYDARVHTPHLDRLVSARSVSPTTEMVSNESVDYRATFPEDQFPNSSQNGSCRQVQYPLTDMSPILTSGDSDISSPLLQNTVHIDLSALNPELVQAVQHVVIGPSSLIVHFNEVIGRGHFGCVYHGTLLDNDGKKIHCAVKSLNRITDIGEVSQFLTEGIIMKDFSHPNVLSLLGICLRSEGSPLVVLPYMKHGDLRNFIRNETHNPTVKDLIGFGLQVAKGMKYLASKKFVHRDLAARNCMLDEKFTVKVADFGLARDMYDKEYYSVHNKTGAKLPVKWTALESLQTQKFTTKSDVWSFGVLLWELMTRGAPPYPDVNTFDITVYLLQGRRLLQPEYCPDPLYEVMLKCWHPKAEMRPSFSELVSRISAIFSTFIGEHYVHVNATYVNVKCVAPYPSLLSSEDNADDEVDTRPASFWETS
Particulars: MET(M1250T); 1 μM; read-out: % control.

For assay [6], the target named is T6, panel of 468 kinases (Homo sapiens, UniProt P0C1S8).
T6 construct: purchased KINOMEscan (ScanMAX) service
The note with it: WEE2; 1 μM; read-out: % control.

In assay [7] the target is T7, panel of 468 kinases (Homo sapiens, UniProt Q15831).
T7 construct: purchased KINOMEscan (ScanMAX) service
T7 sequence (Q15831 1-433): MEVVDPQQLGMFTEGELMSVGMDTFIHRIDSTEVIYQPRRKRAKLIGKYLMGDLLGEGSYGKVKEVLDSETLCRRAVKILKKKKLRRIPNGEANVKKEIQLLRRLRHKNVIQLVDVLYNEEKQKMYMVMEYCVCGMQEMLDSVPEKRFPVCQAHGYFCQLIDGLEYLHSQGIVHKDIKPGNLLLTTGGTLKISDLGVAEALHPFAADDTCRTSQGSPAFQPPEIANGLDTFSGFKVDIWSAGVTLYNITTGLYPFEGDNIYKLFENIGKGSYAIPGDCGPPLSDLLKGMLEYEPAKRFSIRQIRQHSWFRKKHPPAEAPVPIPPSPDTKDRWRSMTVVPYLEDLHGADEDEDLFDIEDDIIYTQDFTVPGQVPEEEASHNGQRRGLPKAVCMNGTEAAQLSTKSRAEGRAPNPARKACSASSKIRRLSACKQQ
Particulars: LKB1; 1 μM; read-out: % control.

For assay [8], the target named is T8, panel of 468 kinases (Homo sapiens, UniProt Q2M2I8).
T8 construct: purchased KINOMEscan (ScanMAX) service
T8 sequence (Q2M2I8 whole entry): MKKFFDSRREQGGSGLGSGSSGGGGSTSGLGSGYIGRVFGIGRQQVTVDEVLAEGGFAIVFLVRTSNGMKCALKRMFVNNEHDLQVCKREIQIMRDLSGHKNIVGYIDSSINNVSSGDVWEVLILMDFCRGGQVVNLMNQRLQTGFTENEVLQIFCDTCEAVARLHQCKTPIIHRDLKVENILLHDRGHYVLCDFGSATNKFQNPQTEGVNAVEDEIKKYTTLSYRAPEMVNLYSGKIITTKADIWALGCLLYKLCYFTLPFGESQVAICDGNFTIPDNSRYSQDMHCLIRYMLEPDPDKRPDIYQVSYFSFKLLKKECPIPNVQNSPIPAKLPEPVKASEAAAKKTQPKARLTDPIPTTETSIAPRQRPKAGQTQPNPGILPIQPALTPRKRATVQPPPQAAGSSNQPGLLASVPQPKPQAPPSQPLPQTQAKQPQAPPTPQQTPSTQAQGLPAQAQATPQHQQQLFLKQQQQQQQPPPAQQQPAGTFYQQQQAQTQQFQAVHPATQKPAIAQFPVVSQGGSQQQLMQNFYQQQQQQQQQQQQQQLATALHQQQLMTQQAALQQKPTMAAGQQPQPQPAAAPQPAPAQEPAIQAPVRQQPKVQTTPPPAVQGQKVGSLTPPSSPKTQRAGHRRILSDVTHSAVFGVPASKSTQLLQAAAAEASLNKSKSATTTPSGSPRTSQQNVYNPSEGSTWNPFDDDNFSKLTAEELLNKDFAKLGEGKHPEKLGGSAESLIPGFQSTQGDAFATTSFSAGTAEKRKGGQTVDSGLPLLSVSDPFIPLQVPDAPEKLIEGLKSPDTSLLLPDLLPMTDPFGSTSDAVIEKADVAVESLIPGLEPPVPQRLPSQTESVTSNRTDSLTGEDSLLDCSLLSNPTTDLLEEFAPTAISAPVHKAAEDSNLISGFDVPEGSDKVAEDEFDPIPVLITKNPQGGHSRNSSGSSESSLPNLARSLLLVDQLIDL
The note with it: AAK1; 1 μM; read-out: % control.

Assay [9] concerns the target T9, panel of 468 kinases (Homo sapiens, UniProt Q92772).
T9 construct: purchased KINOMEscan (ScanMAX) service
T9 sequence (Q92772 1-493): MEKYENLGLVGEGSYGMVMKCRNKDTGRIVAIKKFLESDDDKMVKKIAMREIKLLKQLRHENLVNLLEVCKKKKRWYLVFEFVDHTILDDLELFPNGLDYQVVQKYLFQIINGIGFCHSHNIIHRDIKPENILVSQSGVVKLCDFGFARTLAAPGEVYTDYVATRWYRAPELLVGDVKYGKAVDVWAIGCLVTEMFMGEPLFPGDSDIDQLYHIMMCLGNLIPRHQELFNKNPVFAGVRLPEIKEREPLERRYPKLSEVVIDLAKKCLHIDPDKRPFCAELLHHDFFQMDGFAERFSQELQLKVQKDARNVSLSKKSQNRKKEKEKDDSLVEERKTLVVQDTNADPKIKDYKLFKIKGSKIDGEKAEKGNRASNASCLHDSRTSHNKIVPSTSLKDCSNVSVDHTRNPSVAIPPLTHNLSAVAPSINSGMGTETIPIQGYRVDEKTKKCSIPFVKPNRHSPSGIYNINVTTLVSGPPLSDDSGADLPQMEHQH
The note with it: CDKL2; 1 μM; read-out: % control.

T3 sequence (O95747 whole entry): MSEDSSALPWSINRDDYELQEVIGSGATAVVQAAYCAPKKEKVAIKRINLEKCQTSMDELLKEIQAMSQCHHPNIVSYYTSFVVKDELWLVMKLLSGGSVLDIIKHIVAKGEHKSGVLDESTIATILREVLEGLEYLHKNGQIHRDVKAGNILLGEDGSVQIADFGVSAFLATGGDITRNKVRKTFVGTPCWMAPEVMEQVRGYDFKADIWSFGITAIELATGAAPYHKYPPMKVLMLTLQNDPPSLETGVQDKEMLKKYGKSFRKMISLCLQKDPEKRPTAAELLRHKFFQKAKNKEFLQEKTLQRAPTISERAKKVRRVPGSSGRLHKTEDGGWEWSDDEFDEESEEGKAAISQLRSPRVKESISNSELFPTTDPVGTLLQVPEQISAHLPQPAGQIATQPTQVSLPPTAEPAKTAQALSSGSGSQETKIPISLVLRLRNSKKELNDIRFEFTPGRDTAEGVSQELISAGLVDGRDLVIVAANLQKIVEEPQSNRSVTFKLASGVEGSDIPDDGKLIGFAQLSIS
T1 sequence (O75676 whole entry): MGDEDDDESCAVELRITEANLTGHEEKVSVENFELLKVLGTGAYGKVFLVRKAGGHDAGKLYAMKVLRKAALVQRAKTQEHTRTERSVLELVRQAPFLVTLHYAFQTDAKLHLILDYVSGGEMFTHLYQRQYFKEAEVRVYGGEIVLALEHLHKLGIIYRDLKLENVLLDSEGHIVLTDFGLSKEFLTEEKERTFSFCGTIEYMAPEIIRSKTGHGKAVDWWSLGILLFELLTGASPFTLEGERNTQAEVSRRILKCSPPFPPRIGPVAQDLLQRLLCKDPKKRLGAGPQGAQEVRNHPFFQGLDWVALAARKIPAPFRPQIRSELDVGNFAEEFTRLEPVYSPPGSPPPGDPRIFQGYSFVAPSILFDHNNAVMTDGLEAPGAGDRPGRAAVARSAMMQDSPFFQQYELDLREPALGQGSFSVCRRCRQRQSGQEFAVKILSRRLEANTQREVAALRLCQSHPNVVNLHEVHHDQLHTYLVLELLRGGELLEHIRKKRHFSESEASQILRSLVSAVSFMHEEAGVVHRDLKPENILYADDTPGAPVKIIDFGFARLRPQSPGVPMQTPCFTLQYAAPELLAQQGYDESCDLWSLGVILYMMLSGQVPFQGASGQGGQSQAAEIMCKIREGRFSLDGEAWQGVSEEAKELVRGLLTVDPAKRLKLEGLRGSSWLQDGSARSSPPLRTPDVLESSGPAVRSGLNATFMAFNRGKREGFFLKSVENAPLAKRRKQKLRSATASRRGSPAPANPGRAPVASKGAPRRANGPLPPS

Regarding `CNc1nc(Nc2ccc(C(=O)N3CCC(N4CCOCC4)CC3)c3c2OCO3)nc2[nH]cc(Cl)c12` [Compound 75, (7-((5-chloro-4-(methylamino)-7H-pyrrolo[2,3-d]pyrimidin-2-yl)amino)benzo[d][1,3]dioxol-4-yl)(4-morpholinopiperidin-1-yl)methanone], the remaining binding at 1 µM at panel of 468 kinases [1] (RPS6KA4(Kin.Dom.1-N-terminal)) worked out at 89%; at panel of 468 kinases [1] (RPS6KA4(Kin.Dom.2-C-terminal)), 3.9%; at panel of 468 kinases [2], 4%; at panel of 468 kinases [3], 24%; at panel of 468 kinases [4], 100%; on panel of 468 kinases [5] it was 100%. Also, the remaining binding at 1 µM was found to be 100% at panel of 468 kinases [6], 100% on panel of 468 kinases [7], 13% on panel of 468 kinases [8] and 100% at panel of 468 kinases [9].
Regarding `CNc1nc(Nc2ccc(P3(=O)CCN(C4CCOCC4)CC3)cc2OC)nc2[nH]cc(Cl)c12` [Compound 77, 4-(4-((5-chloro-4-(methylamino)-7H-pyrrolo[2,3-d]pyrimidin-2-yl)amino)-3-methoxyphenyl)-1-(tetrahydro-2H-pyran-4-yl)-1,4-azaphosphinane 4-oxide], the remaining binding at 1 µM at panel of 468 kinases [1] (RPS6KA4(Kin.Dom.1-N-terminal)) was 100%; on panel of 468 kinases [1] (RPS6KA4(Kin.Dom.2-C-terminal)) it was 0.7%; at panel of 468 kinases [2], 13%; on panel of 468 kinases [3], 10%; on panel of 468 kinases [4], 99%; on panel of 468 kinases [5], 100%. For the same molecule, the remaining binding at 1 µM was 100% on panel of 468 kinases [6], 100% on panel of 468 kinases [7], 99% on panel of 468 kinases [8] and 100% on panel of 468 kinases [9].
In the case of `CNc1nc(Nc2ccc(S(=O)(=O)N3CCC(N4CCOCC4)CC3)cc2OC)nc2[nH]cc(Cl)c12` [Compound 12, 5-chloro-N2-(2-methoxy-4-((4-morpholinopiperidin-1-yl)sulfonyl)phenyl)-N4-methyl-7H-pyrrolo[2,3-d]pyrimidine-2,4-diamine], the remaining binding at 1 µM on panel of 468 kinases [1] (RPS6KA4(Kin.Dom.1-N-terminal)) came to 100%; on panel of 468 kinases [1] (RPS6KA4(Kin.Dom.2-C-terminal)), 13%; on panel of 468 kinases [2], 28%; at panel of 468 kinases [3], 31%; at panel of 468 kinases [4], 97%; on panel of 468 kinases [5], 100%. The remaining binding at 1 µM at panel of 468 kinases [6], on panel of 468 kinases [7], on panel of 468 kinases [8] and at panel of 468 kinases [9] was 100% each time.
